Measured values published in paper PMC5650741 (ACS infectious diseases, 2017).

Target: T1, E. coli DXP synthase (DXPS) (Escherichia coli, UniProt P77488)
T1 sequence (P77488 2-620): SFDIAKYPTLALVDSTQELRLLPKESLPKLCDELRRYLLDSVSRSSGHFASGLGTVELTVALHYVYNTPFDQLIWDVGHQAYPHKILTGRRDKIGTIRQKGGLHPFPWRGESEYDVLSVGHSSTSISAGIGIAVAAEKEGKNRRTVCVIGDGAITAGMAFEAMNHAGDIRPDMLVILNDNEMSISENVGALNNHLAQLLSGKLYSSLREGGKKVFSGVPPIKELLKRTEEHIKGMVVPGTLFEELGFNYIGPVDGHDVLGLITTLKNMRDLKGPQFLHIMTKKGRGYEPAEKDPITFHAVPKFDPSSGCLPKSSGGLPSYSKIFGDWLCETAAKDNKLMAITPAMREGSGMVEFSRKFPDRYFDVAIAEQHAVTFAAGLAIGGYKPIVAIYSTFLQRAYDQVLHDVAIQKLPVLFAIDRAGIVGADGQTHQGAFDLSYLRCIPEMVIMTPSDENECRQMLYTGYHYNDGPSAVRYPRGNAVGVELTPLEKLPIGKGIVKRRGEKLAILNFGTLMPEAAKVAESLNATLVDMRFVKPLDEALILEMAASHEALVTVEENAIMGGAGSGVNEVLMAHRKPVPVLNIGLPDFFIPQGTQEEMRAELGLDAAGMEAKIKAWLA
Assay: IspC-coupled NADPH consumption at […] nm
Assay type: biochemical

Structure (SMILES) | Ki
CCCCCCCCOP(=O)(O)C(C)=O [compound 7, octylacetylphosphonate] | 1.4 ± 0.2 µM
CCCOP(=O)(O)C(C)=O [compound 3, alkylAP 3] | 7.1 ± 0.8 µM
